Results from DBAASP.
Converted amounts (≈) assume the structure as drawn. “And” between values parts separate entries of the source, which are not always exact repeats. Equal entries are not always repeated.

Columns and labels:
Experiment in all cases: ≥ marks a high value that may be exact or a test limit, other limits are often not marked, values filed in µg/mL are converted to µM
[1] = tested on: Staphylococcus aureus VRSA1
[2] = tested on: Staphylococcus aureus MU50
[3] = tested on: Staphylococcus aureus MR
[4] = tested on: Micrococcus luteus CCM 144
[5] = tested on: Bacillus subtilis 168
[6] = tested on: Pseudomonas aeruginosa PAO1
[7] = tested on: Klebsiella aerogenes
[8] = tested on: Staphylococcus epidermidis
[9] = tested on: Micrococcus luteus
[10] = tested on: Staphylococcus aureus
[11] = tested on: Pasteurella multocida
[12] = tested on: Escherichia coli
[13] = tested on: Leuconostoc lactis
[14] = tested on: Bacillus cereus
[15] = tested on: Streptococcus uberis
[16] = tested on: Listeria innocua
[17] = tested on: Micrococcus luteus ATCC 9341
[18] = tested on: Escherichia coli IFO 12734
[19] = tested on: Staphylococcus aureus IFO 12732
[20] = tested on: Bacillus subtilis IFO 3513
[21] = tested on: Saccharomyces cerevisiae
[22] = tested on: Escherichia coli ATCC 25922
[23] = tested on: Staphylococcus aureus ATCC BAA-44
[24] = tested on: Staphylococcus aureus ATCC 25923
[25] = tested on: Staphylococcus aureus ST1065
[26] = tested on: Klebsiella pneumoniae ATCC 13883
[27] = tested on: Escherichia coli NCTC 10418
[28] = tested on: Staphylococcus aureus ATCC 43300
[29] = tested on: Streptococcus pyogenes ATCC 19615
[30] = tested on: Candida parapsilosis ATCC 22019
[31] = tested on: Acinetobacter baumannii ATCC 19606
[32] = tested on: Candida albicans NCPF 1467
[33] = tested on: Staphylococcus aureus NCTC 10788
[34] = tested on: Pseudomonas aeruginosa ATCC 27853
[35] = tested on: Enterococcus faecalis ATCC 29212
[36] = tested on: Escherichia coli ML-35p
[37] = tested on: Candida albicans
[38] = tested on: Staphylococcus aureus ATCC 49476

## CC[C@H](C)[C@@H]1NC(=O)[C@@H]2CSSC[C@@H]3NC(=O)[C@H](CCCCN)NC(=O)[C@H](CC(=O)O)NC(=O)[C@H](CCC(N)=O)NC(=O)[C@H](Cc4ccccc4)NC(=O)[C@H](Cc4ccccc4)NC(=O)[C@@H]4CCCN4C(=O)[C@@H](NC(=O)[C@H](Cc4ccc(O)cc4)NC(=O)[C@H](Cc4ccc(O)cc4)NC(=O)CNC(=O)CN)CSSC[C@H](NC(=O)[C@H](Cc4ccc(O)cc4)NC(=O)CNC(=O)[C@H](C)NC(=O)[C@H](CCCCN)NC(=O)[C@H](CCCN=C(N)N)NC(=O)CNC(=O)[C@H](Cc4ccccc4)NC(=O)[C@H](CO)NC(=O)[C@H](CCCN=C(N)N)NC(=O)[C@H](CSSC[C@@H](C(=O)N[C@H](C(=O)O)C(C)C)NC1=O)NC(=O)[C@H](Cc1cnc[nH]1)NC(=O)[C@H](CCCN=C(N)N)NC(=O)[C@H](Cc1cnc[nH]1)NC3=O)C(=O)NCC(=O)NCC(=O)N[C@@H](Cc1ccccc1)C(=O)N[C@@H](CC(C)C)C(=O)N[C@@H](CCCCN)C(=O)N[C@@H](CCCCN)C(=O)N[C@@H]([C@@H](C)O)C(=O)N2 [GGYYCPFFQDKCHRHCRSFGRKAGYCGGFLKKTCICV]
[1]
  MIC: 7.55 µM (≈ 32 µg/mL)
[2]
  MIC: 7.55 µM (≈ 32 µg/mL)
[3]
  MIC: 3.78 µM (≈ 16 µg/mL)
[4]
  MIC: 0.75 µM (≈ 3.17 µg/mL)
[5]
  MIC: 1.5 µM (≈ 6.35 µg/mL)

## CC(C)C[C@H](NC(=O)[C@H](CCCCN)NC(=O)[C@H](CCCCN)NC(=O)[C@H](Cc1ccccc1)NC(=O)[C@H](Cc1ccccc1)NC(=O)[C@H](CCCCN)NC(=O)[C@H](CCCCN)NC(=O)[C@H](Cc1ccccc1)NC(=O)[C@H](CCCN=C(N)N)NC(=O)[C@@H](N)CCCCN)C(=O)N[C@@H](CCCCN)C(=O)N[C@@H](CC(N)=O)C(=O)N[C@@H](CO)C(=O)N[C@H](C(=O)N[C@@H](CCCCN)C(=O)N[C@@H](CCCCN)C(=O)N[C@@H](CCCN=C(N)N)C(=O)N[C@@H](C)C(=O)N[C@@H](CCCCN)C(=O)N[C@@H](CCCCN)C(=O)N[C@@H](Cc1ccccc1)C(=O)N[C@@H](Cc1ccccc1)C(=O)N[C@@H](CCCCN)C(=O)N[C@@H](CCCCN)C(=O)O)C(C)C [KRFKKFFKKLKNSVKKRAKKFFKK]
[6]
  MIC: 7.77 µM and 3.56 µM
[7]
  MIC: 7.77 µM and 3.88 µM

## CC[C@H](C)[C@H](NC(=O)[C@H](CC(N)=O)NC(=O)[C@H](CCCCN)NC(=O)[C@@H](NC(=O)[C@@H](NC(=O)[C@H](CC(=O)O)NC(=O)[C@H](Cc1ccccc1)NC(=O)[C@H](CC(C)C)NC(=O)CN)[C@@H](C)CC)[C@@H](C)CC)C(=O)N[C@@H](Cc1ccccc1)C(=O)N[C@@H](CO)C(=O)NCC(=O)N[C@@H](CC(C)C)C(N)=O [GLFDIIKNIFSGL]
[8]
  MIC: ≥ 69.6 µM
[9]
  MIC: ≥ 69.6 µM
[10]
  MIC: 69.6 µM (≈ 99.9 µg/mL)
[11]
  MIC: ≥ 69.6 µM
[12]
  MIC: > 69.6 µM
[13]
  MIC: 17.4 µM (≈ 25 µg/mL)
[14]
  MIC: ≥ 69.6 µM
[15]
  MIC: ≥ 69.6 µM
[16]
  MIC: ≥ 69.6 µM

## CC[C@H](C)[C@H](N)C(=O)N[C@@H](CC(C)C)C(=O)N1CCC[C@H]1C(=O)N[C@@H](CC(C)C)C(=O)N[C@@H](CCCCN)C(=O)N[C@@H](CC(C)C)C(=O)N1CCC[C@H]1C(=O)N[C@@H](CC(C)C)C(=O)N[C@@H](CC(C)C)C(=O)N1CCC[C@H]1C(=O)N[C@@H](CC(C)C)C(=O)N[C@@H](CCCN=C(N)N)C(=O)N[C@@H](CCCN=C(N)N)C(N)=O [ILPLKLPLLPLRR]
[17]
  MIC: 25 µM (≈ 38.5 µg/mL)
[18]
  MIC: 16.2 µM (≈ 25 µg/mL)
[19]
  MIC: 2.03 µM (≈ 3.13 µg/mL)
[20]
  MIC: 4.05 µM (≈ 6.25 µg/mL)

## CC[C@H](C)[C@H](NC(=O)[C@H](CC(=O)O)NC(=O)[C@H](Cc1ccccc1)NC(=O)[C@H](CC(C)C)NC(=O)CN)C(=O)N[C@H](C(=O)N[C@@H](CCCCN)C(=O)N[C@@H](CCCCN)C(=O)N[C@H](C(=O)N[C@H](C(=O)NCC(=O)N[C@H](C(=O)N[C@H](C(=O)N[C@@H](C)C(=O)NCC(=O)N[C@@H](CC(C)C)C(N)=O)[C@@H](C)CC)[C@@H](C)O)C(C)C)C(C)C)C(C)C [GLFDIVKKVVGTIAGL]
[8]
  MIC: 15.3 µM (≈ 25 µg/mL)
[9]
  MIC: 15.3 µM (≈ 25 µg/mL)
[10]
  MIC: 15.3 µM (≈ 25 µg/mL)
[11]
  MIC: ≥ 61.4 µM
[12]
  MIC: > 61.4 µM
[13]
  MIC: 7.36 µM (≈ 12 µg/mL)
[14]
  MIC: 15.3 µM (≈ 25 µg/mL)
[15]
  MIC: 15.3 µM (≈ 25 µg/mL)
[16]
  MIC: ≥ 61.4 µM

## CC[C@H](C)[C@H](NC(=O)[C@H](CO)NC(=O)[C@H](C)NC(=O)[C@@H](NC(=O)CNC(=O)[C@H](CO)NC(=O)[C@@H](NC(=O)[C@@H](NC(=O)[C@H](Cc1cnc[nH]1)NC(=O)[C@@H]1CCCN1C(=O)[C@@H](NC(=O)[C@H](CC(C)C)NC(=O)[C@H](CO)NC(=O)[C@H](CC(C)C)NC(=O)[C@@H](N)Cc1ccccc1)[C@@H](C)CC)[C@@H](C)CC)C(C)C)C(C)C)C(=O)N[C@@H](C)C(=O)N[C@@H](CCCCN)C(=O)N[C@@H](Cc1cnc[nH]1)C(=O)N[C@@H](Cc1ccccc1)C(N)=O [FLSLIPHIVSGVASIAKHF]
[21]
  MIC: 12.5 µM (≈ 25.4 µg/mL)
[22]
  MIC: 70 µM (≈ 142 µg/mL)
[23]
  MIC: 6.25 µM (≈ 12.7 µg/mL)
[24]
  MIC: 6.25 µM (≈ 12.7 µg/mL)
[25]
  MIC: 6.25 µM (≈ 12.7 µg/mL)
[26]
  MIC: ≥ 100 µM
[27]
  MIC: ≥ 80 µM
[28]
  MIC: 6.25 µM (≈ 12.7 µg/mL)
[29]
  MIC: 3.12 µM (≈ 6.35 µg/mL)
[30]
  MIC: ≥ 100 µM
[31]
  MIC: 6.25 µM (≈ 12.7 µg/mL)
[32]
  MIC: ≥ 100 µM
[33]
  MIC: 5 µM (≈ 10.2 µg/mL)
[34]
  MIC: > 100 µM
[35]
  MIC: 25 µM (≈ 50.9 µg/mL)
[36]
  MIC: ≥ 100 µM

## CC[C@H](C)[C@H](NC(=O)[C@H](CC(C)C)NC(=O)[C@@H]1CCCN1C(=O)[C@H](Cc1c[nH]c2ccccc12)NC(=O)[C@H](CCCCN)NC(=O)[C@H](CCCCN)NC(=O)[C@@H]1CCCN1C(=O)[C@H](CCCCN)NC(=O)[C@H](CC(C)C)NC(=O)[C@@H]1CCCN1C(=O)[C@H](Cc1c[nH]c2ccccc12)NC(=O)[C@H](CCCN=C(N)N)NC(=O)[C@@H](N)CCCN=C(N)N)C(N)=O [RRWPLKPKKWPLI]
[18]
  MIC: 29.1 µM (≈ 50 µg/mL)
[19]
  MIC: 7.28 µM (≈ 12.5 µg/mL)
[20]
  MIC: 7.28 µM (≈ 12.5 µg/mL)

## CC[C@H](C)[C@H](NC(=O)[C@H](Cc1cnc[nH]1)NC(=O)[C@H](CCCCN)NC(=O)CNC(=O)[C@@H](NC(=O)[C@H](CO)NC(=O)[C@H](Cc1ccccc1)NC(=O)[C@H](CC(C)C)NC(=O)CNC(=O)CNC(=O)[C@@H](NC(=O)[C@@H](NC(=O)[C@H](Cc1cnc[nH]1)NC(=O)[C@H](Cc1cnc[nH]1)NC(=O)[C@@H](NC(=O)[C@@H](N)Cc1ccccc1)[C@@H](C)CC)[C@@H](C)CC)[C@@H](C)CC)C(C)C)C(=O)N[C@@H](Cc1cnc[nH]1)C(=O)N[C@@H](CO)C(=O)N[C@@H](CC(C)C)C(=O)N[C@H](C(=O)N[C@@H](Cc1cnc[nH]1)C(=O)N[C@@H](CCCN=C(N)N)C(=O)N[C@@H](CCCN=C(N)N)C(=O)N[C@@H](CCCN=C(N)N)C(=O)N[C@@H](CCCN=C(N)N)C(=O)O)[C@@H](C)CC [FIHHIIGGLFSVGKHIHSLIHRRRR]
[3]
  MIC: 5.36 µM (≈ 16 µg/mL)
[37]
  MIC: 42.8 µM (≈ 128 µg/mL)
[38]
  MIC: 5.36 µM (≈ 16 µg/mL)
[34]
  MIC: > 171 µM
